For 29 compounds, IC50 results are on record in patent US8993565B2, “(6-oxo-1,6-dihydropyrimidin-2-yl)amide derivatives, preparation thereof and pharmaceutical use thereof as AKT(PKB) phosphorylation inhibitors” (Sanofi, priority 2009, dated 2015).

One test deals with AKT protein phosphorylated on serine 473 (pAKT-S473). Kind of test: Study of pAKT expression in PC3 human prostate carcinoma cells measured by western blotting (Test A). The format is cell-based. As to conditions: PC-3, inhibition of AKT phosphorylation (pAKT-S473), 1 to 2 hours incubation, absolute IC50, mean of two experiments. Here is the method:
The inhibitory activity of the molecules on AKT phosphorylation is measured either by western blotting using the technique described below, or by the MSD Multi-spot Biomarker detection technique from Meso Scale Discovery also described below.
Study of pAKT Expression in PC3 Human Prostate Carcinoma Cells Measured by Western Blotting (Test A):
On day 2, the cells are incubated in the presence or absence of the test products for 1 to 2 hours at 37° C. in the presence of 5% CO2. The molecules, diluted in dimethyl sulphoxide (DMSO Sigma #D2650), are added from a 10-times concentrated stock solution, the final percentage of DMSO being 0.1%. The molecules are tested either at a single concentration of less than or equal to 10 μM, or at increasing concentrations in a range that can extend from less than 1 nM to 10 μM.
After this incubation, the cells are lysed for the preparation of the proteins.
The lysate is centrifuged for 10 min at 6000 rpm. 155 μl of supernatant are recovered. 150 μl are incubated for denaturation for 5 min at 95° C. in the presence of 4× NuPAGE LDS Sample Buffer diluted 4-fold (InVitrogen ref NP0007) and of 10× NuPAGE Sample Reducing Agent diluted 10-fold (InVitrogen ref NP0009). These samples are then frozen at −20° C.
The gel is then transferred on to an Invitrolon PVDF membrane (Invitrogen #LC2007) permeabilised beforehand and for a few seconds in ethanol (Ethanol Fischer Scientific #E/0600DF/15).
The transfer is carried out in a Biorad tank at 30 volts overnight or at 60 volts for 3 hours, in the presence of 20× NUPAGE Transfer Buffer diluted 20-fold (InVitrogen ref NP0006).
The membrane is then saturated in saturating solution composed of TBS (10× Tris Buffered Saline, Sigma #T5912, diluted 10-fold), 0.1% Tween (Sigma #P5927) and 3% BSA (Bovine Albumin Serum Fraction V, Sigma #A4503) for 6 h after overnight transfer or else for 1 h after transfer for a period of 3 h.
Two rinses for min in washing solution composed of TBS and 0.1% Tween 20 are carried out before hybridisation of the secondary antibodies.
The secondary antibodies are diluted 110000th for the rabbit anti-Mouse IgG HRP antibody (W402 Promega) and to 110000th for the goat anti-Rabbit IgG HRP antibody (W401 Promega) in saturating solution, and then shaken for 1 h at ambient temperature.
Two rinses for 30 min in washing solution are carried out and then a rinse for 5 min in H2O is carried out in order to eliminate the remaining Tween 20.
The luminescence is read with the FujiFilm device (Ray Test).
The FUJI device measures the total luminescence signal obtained (AU) for each band selected. It then subtracts the background noise (BG) proportional to the size of the band selected (Area), said background noise being calculated from a specific background noise band, with a view to obtaining the specific signal (AU-BG) for each band. The band obtained in the absence of product and in the presence of 0.1% DMSO is considered to be the 100% signal. The software calculates the % specific activity (Ratio) obtained for each band selected as a function of this 100% signal. The percentage inhibition is calculated for each concentration according to the formula (100%−Ratio).
Two independent experiments make it possible to calculate the mean of the percentages of inhibition obtained at a given concentration for the products tested only at one concentration.
Two independent experiments make it possible to calculate the mean of the IC50s.
Background: A western blot detects proteins with antibodies after separation by electrophoresis.
Regarding `O=C(Cc1nc(N2CCOCC2)cc(=O)[nH]1)Nc1ccccc1` [Example 1, 2-[4-(morpholin-4-yl)-6-oxo-1,6-dihydropyrimidin-2-yl]-N-phenylacetamide], half-maximal inhibition (IC50) was put at 102 nM. The same measure, in the same setting: next, `O=C(Cc1nc(N2CCOCC2)cc(=O)[nH]1)Nc1ccc(F)cc1` [Example 2, N-(4-fluorophenyl)-2-[4-(morpholin-4-yl)-6-oxo-1,6-dihydropyrimidin-2-yl]acetamide]: 321 nM; `O=C(Cc1nc(N2CCOCC2)cc(=O)[nH]1)Nc1cccc(Cl)c1` [Example 3, N-(3-chlorophenyl)-2-[4-(morpholin-4-yl)-6-oxo-1,6-dihydropyrimidin-2-yl]acetamide]: 100 nM; `O=C(Cc1nc(N2CCOCC2)cc(=O)[nH]1)Nc1ccc(F)c(F)c1` [Example 6, N-(3,4-difluorophenyl)-2-[4-(morpholin-4-yl)-6-oxo-1,6-dihydropyrimidin-2-yl]acetamide]: 23 nM. Consider `COc1cc(NC(=O)Cc2nc(N3CCOCC3)cc(=O)[nH]2)ccc1F` [Example 8, N-(4-fluoro-3-methoxyphenyl)-2-[4-(morpholin-4-yl)-6-oxo-1,6-dihydropyrimidin-2-yl]acetamide], for which it took 318 nM to reach half-maximal inhibition (IC50).

Compound `O=C(Cc1nc(N2CCOCC2)cc(=O)[nH]1)Nc1ccccc1F` [Example 9, N-(2-fluorophenyl)-2-[4-(morpholin-4-yl)-6-oxo-1,6-dihydropyrimidin-2-yl]acetamide] yielded a half-inhibitory concentration (IC50) of 727 nM. On the same count and under the same terms, next, `Cc1ccccc1NC(=O)Cc1nc(N2CCOCC2)cc(=O)[nH]1` [Example 10, N-(2-methylphenyl)-2-[4-(morpholin-4-yl)-6-oxo-1,6-dihydropyrimidin-2-yl]acetamide]: 3500 nM; `COc1ccccc1NC(=O)Cc1nc(N2CCOCC2)cc(=O)[nH]1` [Example 11, N-(2-methoxyphenyl)-2-[4-(morpholin-4-yl)-6-oxo-1,6-dihydropyrimidin-2-yl]acetamide]: 632 nM. For `O=C(Cc1nc(N2CCOCC2)cc(=O)[nH]1)Nc1ccc(Cl)cc1` [Example 15, N-(4-chlorophenyl)-2-[4-(morpholin-4-yl)-6-oxo-1,6-dihydropyrimidin-2-yl]acetamide], half-maximal inhibition (IC50) required 1420 nM. `COc1cccc(NC(=O)Cc2nc(N3CCOCC3)cc(=O)[nH]2)c1` [Example 16, N-(3-methoxyphenyl)-2-[4-(morpholin-4-yl)-6-oxo-1,6-dihydropyrimidin-2-yl]acetamide] came in with a half-inhibitory concentration (IC50) of 850 nM. On the same count and under the same terms, then `O=C(Cc1nc(N2CCOCC2)cc(=O)[nH]1)Nc1cccc(C(F)(F)F)c1` [Example 17, 2-[4-(morpholin-4-yl)-6-oxo-1,6-dihydropyrimidin-2-y]-N-[3-(trifluoromethyl)phenyl]acetamide], with 1480 nM.

Compound `O=C(Cc1nc(N2CCOCC2)cc(=O)[nH]1)Nc1cccc(Br)c1` [Example 18, N-(3-bromophenyl)-2-[4-(morpholin-4-yl)-6-oxo-1,6-dihydropyrimidin-2-yl]acetamide] came in with an IC50 of 23 nM. On the same count and under the same terms, then `COC(=O)c1cccc(NC(=O)Cc2nc(N3CCOCC3)cc(=O)[nH]2)c1` [Example 20, methyl 3-({[4-(morpholin-4-yl)-6-oxo-1,6-dihydropyrimidin-2-yl]acetyl}amino)benzoate], with 1310 nM; and `O=C(Cc1nc(N2CCOCC2)cc(=O)[nH]1)Nc1cccc(C(=O)O)c1` [Example 21, 3-({[4-(morpholin-4-yl)-6-oxo-1,6-dihydropyrimidin-2-yl]acetyl}amino)benzoic acid], with 10000 nM. Same read-out and setting: then `CC(C)c1cccc(NC(=O)Cc2nc(N3CCOCC3)cc(=O)[nH]2)c1` [Example 22, 2-[4-(morpholin-4-yl)-6-oxo-1,6-dihydropyrimidin-2-yl]-N-[3-(propan-2-yl)phenyl]acetamide], with 350 nM; and `Cc1cccc(NC(=O)Cc2nc(N3CCOCC3)cc(=O)[nH]2)c1` [Example 23, N-(3-methylphenyl)-2-[4-(morpholin-4-yl)-6-oxo-1,6-dihydropyrimidin-2-yl]acetamide], with 39 nM; and `N#Cc1cccc(NC(=O)Cc2nc(N3CCOCC3)cc(=O)[nH]2)c1` [Example 26, N-(3-cyanophenyl)-2-[4-(morpholin-4-yl)-6-oxo-1,6-dihydropyrimidin-2-yl]acetamide], with 2290 nM. Compound `Cc1cc(NC(=O)Cc2nc(N3CCOCC3)cc(=O)[nH]2)ccc1F` [Example 28, N-(4-fluoro-3-methylphenyl)-2-[4-(morpholin-4-yl)-6-oxo-1,6-dihydropyrimidin-2-yl]acetamide] yielded an IC50 of 171 nM. As to `O=C(Cc1nc(N2CCOCC2)cc(=O)[nH]1)Nc1ccc(F)c(Cl)c1` [Example 29, N-(3-chloro-4-fluorophenyl)-2-[4-(morpholin-4-yl)-6-oxo-1,6-dihydropyrimidin-2-yl]acetamide], inhibition was half-maximal at 116 nM (IC50). This IC50 and that of the compound before are within 1.5-fold of each other.

A further test has as its system AKT protein phosphorylated on serine 473 (P-AKT-S473). Briefly: Study of pAKT expression in PC3 human prostate carcinoma cells measured by the MSD Multi-spot Biomarker Detection technique (Test B). The following applies: PC-3, inhibition of AKT phosphorylation (P-AKT-S473), MSD sandwich immunoassay, 1 to 2 h incubation, absolute IC50, mean of 2 experiments. The format is cell-based. A digest of the protocol: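 Lysate P-AKT-S473 quantified by MSD electrochemiluminescent sandwich immunoassay; inhibition vs DMSO and cell-free background, IC50 averaged over 2 experiments.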
The compound `O=C(Cc1nc(N2CCOCC2)cc(=O)[nH]1)Nc1cccc(Br)c1O` [Example 142, N-(3-bromo-2-hydroxyphenyl)-2-[4-(morpholin-4-yl)-6-oxo-1,6-dihydropyrimidin-2-yl]acetamide] registered an IC50 of 22 nM. In other words, the double-digit nanomolar range. The same measure, in the same setting: next, `COC(=O)c1cc(F)ccc1NC(=O)Cc1nc(N2CCOCC2)cc(=O)[nH]1` [Example 144, Methyl 5-fluoro-2-({[4-(morpholin-4-yl)-6-oxo-1,6-dihydropyrimidin-2-yl]acetyl}amino)benzoate]: 432 nM; `O=C(Cc1nc(N2CCOCC2)cc(=O)[nH]1)N1CCc2ncccc21` [Example 146, 2-[2-(2,3-dihydro-1H-pyrrolo[3,2-b]pyridin-1-yl)-2-oxoethyl]-6-(morpholin-4-yl)pyrimidin-4(3H)-one]: 180 nM. `O=C(Cc1nc(N2CCOCC2)cc(=O)[nH]1)N1CCc2cc(F)c(F)cc21` [Example 147, 2-[2-(5,6-Difluoro-2,3-dihydroindol-1-yl)-2-oxoethyl]-6-morpholin-4-yl-3H-pyrimidin-4-one]: the IC50 stood at 4 nM. Still for that read-out and setting: then `O=C(Cc1nc(N2CCOCC2)cc(=O)[nH]1)N1CCOc2c(Cl)cccc21` [Example 149, 2-[2-(8-chloro-2,3-dihydro-4H-1,4-benzoxazin-4-yl)-2-oxoethyl]-6-(morpholin-4-yl)pyrimidin-4(3H)-one], with 43 nM; and `Cc1cccc(NC(=O)Cc2nc(N3CCOCC3)cc(=O)[nH]2)c1O` [Example 150, N-(2-hydroxy-3-methylphenyl)-2-[4-(morpholin-4-yl)-6-oxo-1,6-dihydropyrimidin-2-yl]acetamide], with 189 nM; and `O=C(Cc1nc(N2CCOCC2)cc(=O)[nH]1)Nc1cccc([N+](=O)[O-])c1O` [Example 151, N-(2-hydroxy-3-nitrophenyl)-2-[4-(morpholin-4-yl)-6-oxo-1,6-dihydropyrimidin-2-yl]acetamide], with 29 nM. The same measure, in the same setting: then `N#Cc1cccc(NC(=O)Cc2nc(N3CCOCC3)cc(=O)[nH]2)c1O` [Example 152, N-(3-cyano-2-hydroxyphenyl)-2-[4-(morpholin-4-yl)-6-oxo-1,6-dihydropyrimidin-2-yl]acetamide], with 938 nM.

In turn, `O=C(Cc1nc(N2CCOCC2)cc(=O)[nH]1)Nc1cccc(C(F)(F)F)c1O` [Example 153, N-[2-hydroxy-3-(trifluoromethyl)phenyl]-2-[4-(morpholin-4-yl)-6-oxo-1,6-dihydropyrimidin-2-yl]acetamide] returned an IC50 of 49 nM. Same read-out and setting: then `CC1(C)CN(C(=O)Cc2nc(N3CCOCC3)cc(=O)[nH]2)c2ccccc21` [Example 154, 2-[2-(3,3-dimethyl-2,3-dihydro-1H-indol-1-yl)-2-oxoethyl]-6-(morpholin-4-yl)pyrimidin-4(3H)-one], with 28 nM.

A word on the IC50: it is the point on the concentration scale where inhibition reaches its midpoint.
